According to ChEMBL document CHEMBL1909046, “DrugMatrix in vitro pharmacology data”:

How the values were obtained:
[1] = biological target: Kappa-type opioid receptor (Homo sapiens, UniProt P41145); test: DRUGMATRIX: Opiate kappa (OP2, KOP) radioligand binding (ligand: [3H] Diprenorphine); format: cell membranes, HEK293, Membrane; settings: Not Active = under 50% inhibition at 10 µM
Estrogen receptor beta = Estrogen receptor beta (Homo sapiens, UniProt Q92731); settings: sf9; further: in other assays of this panel Not Active means under 50% inhibition at 10 µM
Chain of Estrogen receptor beta (Q92731 whole entry): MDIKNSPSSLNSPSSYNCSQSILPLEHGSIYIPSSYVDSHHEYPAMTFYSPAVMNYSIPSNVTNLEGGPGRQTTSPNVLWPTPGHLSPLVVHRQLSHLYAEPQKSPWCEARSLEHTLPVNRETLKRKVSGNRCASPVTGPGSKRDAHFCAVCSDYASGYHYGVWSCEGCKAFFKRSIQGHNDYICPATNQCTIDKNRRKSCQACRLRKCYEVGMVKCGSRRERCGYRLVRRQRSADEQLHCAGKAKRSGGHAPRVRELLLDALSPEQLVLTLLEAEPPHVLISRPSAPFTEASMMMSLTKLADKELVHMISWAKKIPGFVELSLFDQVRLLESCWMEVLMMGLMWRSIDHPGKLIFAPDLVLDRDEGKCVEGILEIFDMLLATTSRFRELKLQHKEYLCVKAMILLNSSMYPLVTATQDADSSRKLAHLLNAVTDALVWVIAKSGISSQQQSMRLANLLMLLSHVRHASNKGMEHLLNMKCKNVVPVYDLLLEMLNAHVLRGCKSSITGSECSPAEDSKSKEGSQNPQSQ

Neutrophil elastase = biological target: T1, Neutrophil elastase (Homo sapiens, UniProt P08246); format: tissue-based;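 further: inhibition of neutrophil elastase enzyme activity, measured with a p-nitroanilide-linked peptide substrate; in other assays of this panel Not Active means under 50% inhibition at 10 µM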
T1 sequence (P08246 whole entry): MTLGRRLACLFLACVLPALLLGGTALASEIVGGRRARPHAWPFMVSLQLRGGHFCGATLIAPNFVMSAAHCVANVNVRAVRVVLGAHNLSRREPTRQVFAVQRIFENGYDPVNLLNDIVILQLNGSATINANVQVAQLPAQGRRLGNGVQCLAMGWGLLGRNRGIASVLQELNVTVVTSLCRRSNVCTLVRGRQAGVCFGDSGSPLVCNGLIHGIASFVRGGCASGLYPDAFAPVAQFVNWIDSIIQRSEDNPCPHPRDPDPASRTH

Glycine receptor = Glycine receptor (Rattus norvegicus, UniProt P22771+P24524+P07727+P20781); format: cell membranes, Wistar, Spinal cord, Membrane; further: in other assays of this panel Not Active means under 50% inhibition at 10 µM
[2] = biological target: Tyrosine-protein kinase Fyn (Homo sapiens, UniProt P06241); test: biochemical; format: cell-based, Insect cells; settings: insect cells;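 further: enzymatic inhibition of Fyn kinase activity measured with Poly(Glu:Tyr) as the phosphorylation substrate; in other assays of this panel Not Active means under 50% inhibition at 10 µM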
Chain of Tyrosine-protein kinase Fyn (P06241 whole entry): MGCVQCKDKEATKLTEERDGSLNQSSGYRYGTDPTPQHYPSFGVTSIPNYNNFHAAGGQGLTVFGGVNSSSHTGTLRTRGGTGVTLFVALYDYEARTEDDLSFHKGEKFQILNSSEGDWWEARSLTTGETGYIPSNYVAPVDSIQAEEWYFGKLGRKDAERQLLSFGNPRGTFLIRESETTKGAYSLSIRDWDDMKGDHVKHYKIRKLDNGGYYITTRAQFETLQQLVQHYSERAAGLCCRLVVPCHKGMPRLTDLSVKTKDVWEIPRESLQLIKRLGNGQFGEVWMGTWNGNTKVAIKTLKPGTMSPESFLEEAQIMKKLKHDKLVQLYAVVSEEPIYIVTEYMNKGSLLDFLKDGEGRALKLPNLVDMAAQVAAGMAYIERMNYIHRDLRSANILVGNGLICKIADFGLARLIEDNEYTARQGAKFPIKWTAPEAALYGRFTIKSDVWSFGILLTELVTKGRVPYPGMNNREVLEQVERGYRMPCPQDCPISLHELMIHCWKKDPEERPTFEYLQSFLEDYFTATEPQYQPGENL

[3] = biological target: Sodium-dependent dopamine transporter (Homo sapiens, UniProt Q01959); test: DRUGMATRIX: Dopamine Transporter radioligand binding (ligand: [125I] RTI-55); format: cell membranes, CHO-K1, Membrane; settings: Not Active = under 50% inhibition at 10 µM
Chain of Sodium-dependent dopamine transporter (Q01959 whole entry): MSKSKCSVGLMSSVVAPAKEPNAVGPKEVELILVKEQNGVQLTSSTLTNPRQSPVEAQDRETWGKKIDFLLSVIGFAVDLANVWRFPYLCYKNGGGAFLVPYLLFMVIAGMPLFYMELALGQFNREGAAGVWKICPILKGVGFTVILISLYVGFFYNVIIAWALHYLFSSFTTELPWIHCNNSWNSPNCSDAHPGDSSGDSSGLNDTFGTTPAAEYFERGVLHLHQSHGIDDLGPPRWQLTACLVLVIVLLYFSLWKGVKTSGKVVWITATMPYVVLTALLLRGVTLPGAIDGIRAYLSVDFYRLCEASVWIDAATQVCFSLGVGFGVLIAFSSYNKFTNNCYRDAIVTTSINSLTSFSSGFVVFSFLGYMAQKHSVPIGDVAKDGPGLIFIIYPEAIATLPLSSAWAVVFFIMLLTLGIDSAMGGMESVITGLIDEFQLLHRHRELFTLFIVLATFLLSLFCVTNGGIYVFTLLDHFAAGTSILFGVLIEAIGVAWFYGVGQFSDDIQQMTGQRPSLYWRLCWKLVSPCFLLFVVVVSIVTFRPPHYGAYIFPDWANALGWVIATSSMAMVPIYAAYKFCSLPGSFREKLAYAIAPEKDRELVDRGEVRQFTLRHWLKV

[4] = DRUGMATRIX: GABAA, Muscimol, Central radioligand binding (ligand: [3H] Muscimol); format: cell membranes, Rattus norvegicus, Wistar, Brain, Membrane; settings: Not Active = under 50% inhibition at 10 µM
Glucocorticoid receptor = biological target: T2, Glucocorticoid receptor (Homo sapiens, UniProt P04150); settings: hela s3; further: in other assays of this panel Not Active means under 50% inhibition at 10 µM
T2 sequence (P04150 whole entry): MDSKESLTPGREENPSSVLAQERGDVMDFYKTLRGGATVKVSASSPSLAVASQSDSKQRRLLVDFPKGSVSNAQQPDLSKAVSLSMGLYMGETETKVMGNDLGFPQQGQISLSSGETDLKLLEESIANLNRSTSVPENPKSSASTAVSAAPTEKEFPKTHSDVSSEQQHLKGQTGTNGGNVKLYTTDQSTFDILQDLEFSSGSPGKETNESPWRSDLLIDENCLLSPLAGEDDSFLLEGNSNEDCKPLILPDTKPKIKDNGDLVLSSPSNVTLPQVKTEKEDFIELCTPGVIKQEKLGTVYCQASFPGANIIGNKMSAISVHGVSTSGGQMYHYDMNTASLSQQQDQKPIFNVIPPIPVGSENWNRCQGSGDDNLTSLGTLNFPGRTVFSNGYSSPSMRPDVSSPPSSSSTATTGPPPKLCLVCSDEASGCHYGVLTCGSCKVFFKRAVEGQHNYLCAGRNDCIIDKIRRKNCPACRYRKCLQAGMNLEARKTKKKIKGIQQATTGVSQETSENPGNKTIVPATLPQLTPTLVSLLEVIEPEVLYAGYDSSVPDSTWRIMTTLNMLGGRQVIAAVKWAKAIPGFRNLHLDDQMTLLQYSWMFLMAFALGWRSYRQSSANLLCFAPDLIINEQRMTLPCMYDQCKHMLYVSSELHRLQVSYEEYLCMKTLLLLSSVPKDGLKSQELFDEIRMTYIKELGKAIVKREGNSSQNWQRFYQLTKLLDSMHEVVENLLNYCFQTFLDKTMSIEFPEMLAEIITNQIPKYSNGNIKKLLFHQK

Chain of Kappa-type opioid receptor (P41145 whole entry): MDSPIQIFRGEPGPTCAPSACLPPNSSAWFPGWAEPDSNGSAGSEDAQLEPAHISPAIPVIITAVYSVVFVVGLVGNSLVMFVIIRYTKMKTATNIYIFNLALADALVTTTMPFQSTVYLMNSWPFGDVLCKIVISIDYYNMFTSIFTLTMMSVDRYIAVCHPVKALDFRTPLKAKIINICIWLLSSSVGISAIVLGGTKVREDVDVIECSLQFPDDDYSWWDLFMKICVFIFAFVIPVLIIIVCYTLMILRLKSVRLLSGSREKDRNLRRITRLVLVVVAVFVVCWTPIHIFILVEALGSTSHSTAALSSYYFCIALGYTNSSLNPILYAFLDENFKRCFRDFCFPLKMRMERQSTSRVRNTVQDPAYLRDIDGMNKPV

In the case of O=C(O)CO [GLYCOLIC ACID], the IC50 ([1]; hek293) is reported as “Not Active”, the IC50 (Estrogen receptor beta) is reported as “Not Active” and the IC50 (Neutrophil elastase) is reported as “Not Active”. For the same molecule, the IC50 (Glycine receptor) was “Not Active”, the IC50 [2] was “Not Active” and the IC50 ([3]; cho-k1) was “Not Active”. For the same molecule, the IC50 [4] was “Not Active” and the Ki [4] was “Not Active”.
With CCN1CCN(C(=O)N[C@@H](C(=O)N[C@@H]2C(=O)N3[C@@H]2SC(C)(C)[C@@H]3C(=O)O)c2ccccc2)C(=O)C1=O [PIPERACILLIN] the IC50 ([1]; hek293) was “Not Active”, the IC50 (Estrogen receptor beta) was “Not Active” and the IC50 (Neutrophil elastase) was “Not Active”. For the same molecule, the IC50 (Glycine receptor) was “Not Active”, the IC50 [2] was “Not Active” and the IC50 ([3]; cho-k1) was “Not Active”. For the same molecule, the IC50 [4] was “Not Active” and the Ki [4] was “Not Active”.
In the case of C=CCO [ALLYL ALCOHOL], the IC50 (Neutrophil elastase) is reported as “Not Active”, the IC50 (Glycine receptor) is reported as “Not Active” and the IC50 (Glucocorticoid receptor) is reported as “Not Active”. For the same molecule, the IC50 [2] was “Not Active”, the IC50 ([3]; cho-k1) was “Not Active” and the IC50 [4] was “Not Active”. The Ki [4] was “Not Active”.
For c1ccc2sc(SSc3nc4ccccc4s3)nc2c1 [BENZOTHIAZYL DISULFIDE], the Ki [1] was 497 nM, the IC50 ([1]; read-out: IC50) was 1240 nM and the IC50 (Neutrophil elastase) was “Not Active”. The IC50 (Glycine receptor) was “Not Active”, the IC50 (Glucocorticoid receptor) was “Not Active” and the IC50 [2] was “Not Active”. The IC50 ([3]; read-out: IC50) was 245 nM, the Ki ([3]; read-out: Ki) was 194 nM and the IC50 [4] was “Not Active”. For the same molecule, the Ki [4] was “Not Active”.
With OC[C@H]1O[C@@H]2O[C@H]3[C@H](O)[C@@H](O)[C@@H](O[C@H]4[C@H](O)[C@@H](O)[C@@H](O[C@H]5[C@H](O)[C@@H](O)[C@@H](O[C@H]6[C@H](O)[C@@H](O)[C@@H](O[C@H]7[C@H](O)[C@@H](O)[C@@H](O[C@H]8[C@H](O)[C@@H](O)[C@@H](O[C@H]1[C@H](O)[C@H]2O)O[C@@H]8CO)O[C@@H]7CO)O[C@@H]6CO)O[C@@H]5CO)O[C@@H]4CO)O[C@@H]3CO [BETADEX] the IC50 ([1]; hek293) was “Not Active”, the IC50 (Neutrophil elastase) was “Not Active” and the IC50 (Glycine receptor) was “Not Active”. For the same molecule, the IC50 (Glucocorticoid receptor) was “Not Active”, the IC50 [2] was “Not Active” and the IC50 ([3]; cho-k1) was “Not Active”. For the same molecule, the IC50 [4] was “Not Active” and the Ki [4] was “Not Active”.
With CC(C)NCC(O)COc1ccc(CC(N)=O)cc1 (stereo not given) [ATENOLOL] the IC50 ([1]; hek293) was “Not Active”, the IC50 (Neutrophil elastase) was “Not Active” and the IC50 (Glycine receptor) was “Not Active”. The IC50 [2] was “Not Active”, the IC50 ([3]; cho-k1) was “Not Active” and the IC50 [4] was “Not Active”. For the same molecule, the Ki [4] was “Not Active”.
With NS(=O)(=O)c1cc(C(=O)O)c(NCc2ccco2)cc1Cl [FUROSEMIDE] the IC50 ([1]; hek293) was “Not Active”, the IC50 (Neutrophil elastase) was “Not Active” and the IC50 (Glycine receptor) was “Not Active”. For the same molecule, the IC50 [2] was “Not Active”, the IC50 ([3]; cho-k1) was “Not Active” and the IC50 [4] was “Not Active”. The Ki [4] was “Not Active”.
For COC(=O)Nc1nc2ccc(Sc3ccccc3)cc2[nH]1 [FENBENDAZOLE], the IC50 ([1]; hek293) was “Not Active”, the IC50 (Neutrophil elastase) was “Not Active” and the IC50 (Glycine receptor) was “Not Active”. For the same molecule, the IC50 (Glucocorticoid receptor) was “Not Active”, the IC50 [2] was “Not Active” and the IC50 ([3]; cho-k1) was “Not Active”. For the same molecule, the IC50 [4] was “Not Active” and the Ki [4] was “Not Active”.
With Cc1c(N)nc([C@H](CC(N)=O)NC[C@H](N)C(N)=O)nc1C(=O)N[C@H](C(=O)N[C@H](C)[C@@H](O)[C@H](C)C(=O)N[C@H](C(=O)NCCc1nc(-c2nc(C(=O)NCCC[S+](C)C)cs2)cs1)[C@@H](C)O)[C@@H](O[C@@H]1O[C@@H](CO)[C@@H](O)[C@H](O)[C@@H]1O[C@H]1O[C@H](CO)[C@@H](O)[C@H](OC(N)=O)[C@@H]1O)c1c[nH]cn1.[Br-] [BLEOMYCIN A2] the IC50 ([1]; hek293) was “Not Active”, the IC50 (Neutrophil elastase) was “Not Active” and the IC50 (Glycine receptor) was “Not Active”. For the same molecule, the IC50 (Glucocorticoid receptor) was “Not Active”, the IC50 [2] was “Not Active” and the IC50 ([3]; cho-k1) was “Not Active”. For the same molecule, the IC50 [4] was “Not Active” and the Ki [4] was “Not Active”.
For C=C(Cl)Cl [1,1-DICHLOROETHENE], the IC50 (Neutrophil elastase) was “Not Active”, the IC50 (Glycine receptor) was “Not Active” and the IC50 (Glucocorticoid receptor) was “Not Active”. The IC50 [2] was “Not Active”, the IC50 ([3]; cho-k1) was “Not Active” and the IC50 [4] was “Not Active”. The Ki [4] was “Not Active”.
For CC(=O)[C@]1(O)Cc2c(O)c3c(c(O)c2[C@@H](O[C@H]2C[C@H](N)[C@H](O)[C@H](C)O2)C1)C(=O)c1ccccc1C3=O [IDARUBICIN], the IC50 ([1]; hek293) was “Not Active”, the IC50 (Neutrophil elastase) was “Not Active” and the IC50 (Glycine receptor) was “Not Active”. For the same molecule, the IC50 (Glucocorticoid receptor) was “Not Active”, the IC50 [2] was “Not Active” and the IC50 ([3]; cho-k1) was “Not Active”. The IC50 [4] was “Not Active” and the Ki [4] was “Not Active”.
With Oc1ccccc1 [PHENOL] the IC50 ([1]; hek293) was “Not Active”, the IC50 (Neutrophil elastase) was “Not Active” and the IC50 (Glycine receptor) was “Not Active”. The IC50 [2] was “Not Active”, the IC50 ([3]; cho-k1) was “Not Active” and the IC50 [4] was “Not Active”. For the same molecule, the Ki [4] was “Not Active”.
For C[N+](C)(C)CCOC(N)=O.[Cl-] [CARBACHOL], the IC50 ([1]; hek293) was “Not Active”, the IC50 (Neutrophil elastase) was “Not Active” and the IC50 (Glycine receptor) was “Not Active”. For the same molecule, the IC50 [2] was “Not Active”, the IC50 ([3]; cho-k1) was “Not Active” and the IC50 [4] was “Not Active”. The Ki [4] was “Not Active”.
